The target of the assay is T1, Recombinant full length human OGA enzyme (Homo sapiens, UniProt O60502).
T1 construct: Recombinant full length human OGA enzyme was purchased from Origene; purchased Origene
T1 sequence (O60502 1-916): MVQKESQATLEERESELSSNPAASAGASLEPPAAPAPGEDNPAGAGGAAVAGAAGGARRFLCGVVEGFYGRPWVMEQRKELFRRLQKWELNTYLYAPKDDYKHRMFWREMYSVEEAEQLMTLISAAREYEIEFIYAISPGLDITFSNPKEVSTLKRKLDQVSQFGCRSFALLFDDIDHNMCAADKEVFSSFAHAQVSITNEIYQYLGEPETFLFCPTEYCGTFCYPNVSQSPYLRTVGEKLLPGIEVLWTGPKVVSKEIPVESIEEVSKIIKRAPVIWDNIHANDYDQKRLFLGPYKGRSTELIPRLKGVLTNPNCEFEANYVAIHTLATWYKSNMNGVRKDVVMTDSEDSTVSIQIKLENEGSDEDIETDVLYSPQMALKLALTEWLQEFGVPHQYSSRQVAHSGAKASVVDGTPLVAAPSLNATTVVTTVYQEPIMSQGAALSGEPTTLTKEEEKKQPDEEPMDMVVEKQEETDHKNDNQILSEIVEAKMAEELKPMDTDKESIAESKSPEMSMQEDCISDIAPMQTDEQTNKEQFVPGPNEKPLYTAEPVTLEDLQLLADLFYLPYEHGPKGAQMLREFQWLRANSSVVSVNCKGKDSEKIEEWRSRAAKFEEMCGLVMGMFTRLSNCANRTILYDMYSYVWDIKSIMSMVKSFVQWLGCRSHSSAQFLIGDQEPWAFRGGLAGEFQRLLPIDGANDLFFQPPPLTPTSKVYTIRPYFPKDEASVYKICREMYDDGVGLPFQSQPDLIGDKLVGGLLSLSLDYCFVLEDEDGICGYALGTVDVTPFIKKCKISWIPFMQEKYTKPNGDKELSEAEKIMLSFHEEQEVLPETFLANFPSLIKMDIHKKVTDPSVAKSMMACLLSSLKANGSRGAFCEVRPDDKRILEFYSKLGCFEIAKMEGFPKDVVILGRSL
Description: OGA Enzyme Inhibition Biochemical Assay. The following applies: 1 nM OGA, 100 μM 4-MUGlcNAc (Km), pH 6.4, 90 minutes at room temperature; 10-point dose-response starting from 20 μM. The procedure: OGA Enzyme Inhibition Biochemical Assay
Recombinant full length human OGA enzyme was purchased from Origene. 4-MUGlCNAc substrate was purchased from Sigma. All other reagents were purchased from Sigma or Fisher. Assay buffer consists of the McIlvaine buffer system, pH 6.4 (0.2M Na2HPO4 mixed with 0.1M citric acid) and 0.01% BSA. Reactions consist of 1 nM OGA, 100 μM 4-MUGlcNAc (Km), and compound in a final volume of 10 μl. Reactions were incubated for 90 minutes at room temperature and quenched with 40 μl of 3M glycine, pH 10 and read on a Perkin Elmer Envision plate reader (Ex: 355 nm/Em: 460 nm). Compounds were tested with a 10-point dose-response starting from 20 μM with a 4-fold dilution. Data was fit using GraphPad Prism using a 4-paramter fit with variable slope.
Broadly, the IC50 is the concentration that inhibits the measured activity by half. `COc1cc(C[C@@H]2CN(Cc3cnc(NC(C)=O)s3)CCO2)ccn1` [Example 1-3, (R)—N-(5-((2-((2-methoxypyridin-4-yl)methyl)morpholino)methyl)thiazol-2-yl)acetamide]: the IC50 amounted to 43 nM.
The value for `COc1cc(C[C@H]2CN(Cc3cnc(NC(C)=O)s3)CCO2)ccn1` [Example 1-4, (S)—N-(5-((2-((2-methoxypyridin-4-yl)methyl)morpholino)methyl)thiazol-2-yl)acetamide] was 11000 nM; that for `COc1nccc(C[C@@H]2CN(Cc3cnc(NC(C)=O)s3)CCO2)c1C` [Example 1-5, (R)—N-(5-((2-((2-methoxy-3-methylpyridin-4-yl)methyl)morpholino)methyl)thiazol-2-yl)acetamide] was 61 nM.
Take `COc1cc(C[C@@H]2CN(Cc3cnc(NC(C)=O)s3)CCO2)ccc1F` [Example 1-6, (R)—N-(5-((2-(4-fluoro-3-methoxybenzyl)morpholino)methyl)thiazol-2-yl)acetamide]: the IC50 was found to be 100 nM.
In the case of `COc1nccc(C[C@@H]2CN(Cc3cnc(NC(C)=O)s3)CCO2)n1` [Example 1-7, (R)—N-(5-((2-((2-methoxypyrimidin-4-yl)methyl)morpholino)methyl)thiazol-2-yl)acetamide], the IC50 worked out at 110 nM.
As for `COc1cc(C[C@@H]2CN(Cc3cnc(NC(C)=O)s3)CCO2)ncn1` [Example 1-8, (R)—N-(5-((2-((6-methoxypyrimidin-4-yl)methyl)morpholino)methyl)thiazol-2-yl)acetamide], the IC50 worked out at 130 nM.
On to `CC(=O)Nc1ncc(CN2CCO[C@H](Cc3ccnc(C(F)(F)F)n3)C2)s1` [Example 1-9], for which the IC50 turned out to be 1500 nM.
For the compound `CC(=O)Nc1ncc(CN2CCO[C@H](Cc3ccnc(OCC(F)(F)F)c3)C2)s1` [Example 1-10], the IC50 stood at 160 nM.
With `CCOc1cc(C[C@@H]2CN(Cc3cnc(NC(C)=O)s3)CCO2)ccn1` [Example 1-11, (R)—N-(5-((2-((2-ethoxypyridin-4-yl)methyl)morpholino)methyl)thiazol-2-yl)acetamide], the IC50 is 130 nM.
For the compound `CC(=O)Nc1ncc(CN2CCO[C@H](Cc3ccnc(OC(C)C)c3)C2)s1` [Example 1-12, (R)—N-(5-((2-((2-isopropoxypyridin-4-yl)methyl)morpholino)methyl)thiazol-2-yl)acetamide], the IC50 is 270 nM.
The value for `CC(=O)Nc1ncc(CN2CCO[C@H](Cc3ccnc(C(F)F)c3)C2)s1` [Example 1-13] was 260 nM; that for `CC(=O)Nc1ncc(CN2CCO[C@H](Cc3ccnc(C)n3)C2)s1` [Example 1-14, (R)—N-(5-((2-((2-methylpyrimidin-4-yl)methyl)morpholino)methyl)thiazol-2-yl)acetamide] was 180 nM.
The value for `COc1nccc(C[C@@H]2CN(Cc3cnc(NC(C)=O)s3)CCO2)c1F` [Example 1-15, (R)—N-(5-((2-((3-fluoro-2-methoxypyridin-4-yl)methyl)morpholino)methyl)thiazol-2-yl)acetamide] was 56 nM; that for `CC(=O)Nc1ncc(CN2CCO[C@H](Cc3ccc(C)cn3)C2)s1` [Example 1-16, (R)—N-(5-((2-((5-methylpyridin-2-yl)methyl)morpholino)methyl)thiazol-2-yl)acetamide] was 160 nM; that for `CC(=O)Nc1ncc(CN2CCO[C@H](Cc3ccnc(OC(F)F)c3)C2)s1` [Example 1-17, (R)—N-(5-((2-((2-(difluoromethoxy)pyridin-4-yl)methyl)morpholino)methyl)thiazol-2-yl)acetamide] was 136 nM.
Consider `CC(=O)Nc1ncc(CN2CCO[C@H](Cc3cc(C)c(F)cn3)C2)s1` [Example 1-18, (R)—N-(5-((2-((5-fluoro-4-methylpyridin-2-yl)methyl)morpholino)methyl)thiazol-2-yl)acetamide], for which the IC50 was found to be 200 nM.
With `CC(=O)Nc1ncc(CN2CCO[C@H](Cc3ccc(C)nc3)C2)s1` [Example 1-19, (R)—N-(5-((2-((6-methylpyridin-3-yl)methyl)morpholino)methyl)thiazol-2-yl)acetamide], the IC50 came out at 110 nM.
For `CC(=O)Nc1ncc(CN2CCO[C@H](Cc3ccnc(C)c3)C2)s1` [Example 1-20, (R)—N-(5-((2-((2-methylpyridin-4-yl)methyl)morpholino)methyl)thiazol-2-yl)acetamide] the value was 84 nM; for `CC(=O)Nc1ncc(CN2CCO[C@H](Cc3cc(C)nc(C)c3)C2)s1` [Example 1-21, (R)—N-(5-((2-((2,6-dimethylpyridin-4-yl)methyl)morpholino)methyl)thiazol-2-yl)acetamide], 38 nM; for `CC(=O)Nc1ncc(CN2C[C@@H](Cc3ncc(F)cn3)OC[C@@H]2C)s1` [Example 1-26], 5.1 nM.
The value for `CC(=O)Nc1ncc(CN2C[C@@H](Cc3ncc(F)cn3)OC[C@H]2C)s1` [Example 1-27] was 6600 nM; that for `CC(=O)Nc1ncc(CN2C[C@H](Cc3ncc(F)cn3)OC[C@@H]2C)s1` [Example 1-28, N-(5-(((2S,5S)-2-((5-fluoropyrimidin-2-yl)methyl)-5-methylmorpholino)methyl)thiazol-2-yl)acetamide] was 150 nM.
`CC(=O)Nc1ncc(CN2C[C@H](Cc3ncc(F)cn3)OC[C@H]2C)s1` [Example 1-29, N-(5-(((2S,5R)-2-((5-fluoropyrimidin-2-yl)methyl)-5-methylmorpholino)methyl)thiazol-2-yl)acetamide]: the IC50 was 12000 nM.
As to `COc1cc(C[C@@H]2CN(Cc3cnc(NC(C)=O)s3)[C@@H](C)CO2)ccn1` [Example 1-30, N-(5-(((2R,5S)-2-((2-methoxypyridin-4-yl)methyl)-5-methylmorpholino)methyl)thiazol-2-yl)acetamide], the IC50 was determined as 17000 nM.
As to `CC(=O)Nc1ncc(CN2C[C@@H](Cc3cc(C)nc(C)c3)OC[C@@H]2C)s1` [Example 1-31], the IC50 came out at 9 nM.
As to `CC(=O)Nc1ncc(CN2C[C@@H](Cc3ccnc(C)c3)OC[C@@H]2C)s1` [Example 1-32, N-(5-(((2R,5S)-5-methyl-2-((2-methylpyridin-4-yl)methyl)morpholino)methyl)thiazol-2-yl)acetamide], the IC50 was 1.4 nM.
In the case of `CC(=O)Nc1ncc(CN2C[C@@H](Cc3ccc(C)nc3)OC[C@@H]2C)s1` [Example 1-33, N-(5-(((2R,5S)-5-methyl-2-((6-methylpyridin-3-yl)methyl)morpholino)methyl)thiazol-2-yl)acetamide], the IC50 is 31 nM.
For `CC(=O)Nc1nc(F)c(CN2CCO[C@H](Cc3ccc(C)nc3)C2)s1` [Example 1-48, (R)—N-(4-fluoro-5-((2-((6-methylpyridin-3-yl)methyl)morpholino)methyl)thiazol-2-yl)acetamide], the IC50 amounted to 140 nM.
Take `CC(=O)Nc1nc(F)c(CN2C[C@@H](Cc3ccc(C)nc3)OC[C@@H]2C)s1` [Example 1-49, N-(4-fluoro-5-(((2R,5S)-5-methyl-2-((6-methylpyridin-3 yl)methyl)morpholino)methyl)thiazol-2-yl)acetamide]: the IC50 is 170 nM.
As for `CC(=O)Nc1ncc(CN2C[C@@H](Cc3ccnc(C)c3)NC[C@@H]2C)s1` [Example 2-1, N-(5-(((2S,5R)-2-methyl-5-((2-methylpyridin-4-yl)methyl)piperazin-1-yl)methyl)thiazol-2-yl)acetamide], the IC50 amounted to 7.4 nM.
Take `CC(=O)Nc1ncc(CN2C[C@@H](Cc3ccnc(C)c3)N(C)C[C@@H]2C)s1` [Example 2-2, N-(5-(((2S,5R)-2,4-dimethyl-5-((2-methylpyridin-4-yl)methyl)piperazin-1-yl)methyl)thiazol-2-yl)acetamide]: the IC50 stood at 9.8 nM.
The value for `CCN1C[C@H](C)N(Cc2cnc(NC(C)=O)s2)C[C@H]1Cc1ccnc(C)c1` [Example 2-3, N-(5-(((2S,5R)-4-ethyl-2-methyl-5-((2-methylpyridin-4-yl)methyl)piperazin-1-yl)methyl)thiazol-2-yl)acetamide] was 26 nM; that for `CC(=O)Nc1ncc(CN2C[C@@H](Cc3ccnc(C)c3)N(C(C)=O)C[C@@H]2C)s1` [Example 2-4, N-(5-(((2S,5R)-4-acetyl-2-methyl-5-((2-methylpyridin-4-yl)methyl)piperazin-1-yl)methyl)thiazol-2-yl)acetamide] was 7500 nM.

Values taken from patent US12319679B2, “Morpholinyl, piperazinyl, oxazepanyl and diazepanyl O-glycoprotein-2-acetamido-2-deoxy-3-d-glucopyranosidase inhibitors” (BIOGEN MA INC., priority 2018, dated 2025).
